Key:
[1] = tested on: normal male cynomolgus monkeys; assay: Tear film break-up time (TBUT) after single ocular instillation (Tests 1 and 2); assay type: in vivo, cynomolgus monkey; conditions: for extension of TBUT: single ocular instillation 1% (w/v) ophthalmic solution, FIG. 2
[2] = tested on: dry-eye model SD (Sprague-Dawley) rat; assay: Quantity of tears by Schirmer strip in the exorbital-lacrimal-gland-removed dry-eye model (Tests 3 and 4); assay type: in vivo; conditions: for Incremental difference in Schirmer's test at 0.5 hours after ocular instillation / Incremental difference in Schirmer's test at 8 hours after ocular instillation: difference from vehicle-instilled group, rat dry-eye model
Protocol: A somnopentyl injection five-fold diluted with physiological saline was intraperitoneally administered to a normal male SD (Sprague-Dawley) rat by 2.5 mL/kg, and the rat was given general anesthesia, followed by keeping the anesthetized state by inhalation of about 1 to 3% isoflurane. Then, the skin on each cheek was incised to remove the exorbital lacrimal gland, followed by suturation with a Michel suture clamp. In this test, an individual wherein reduction of tears was confirmed after 13 weeks from the removal of exorbital lacrimal gland was included as the experimental animal.
Half an hour after treatment of general anesthesia, Schirmer strip (1 mm×17 mm) was inserted to conjunctival sac of the lower eyelid of a rat, and then after 1 minute of the insertion, the wet part of the Schirmer strip was measured in increments of 0.5 mm. (N=14 or 16 eyes)
The quantity of tears was measured in a similar manner to Test 3. (N=10 eyes)

[3] = cited from earlier work; for secretion of tears and tear proteins: Patent Literature 1
[4] = tested on: normal male cynomolgus monkeys; assay: Intraocular pressure test, twice daily repeated instillation (Test 5); assay type: in vivo, cynomolgus monkey; conditions: 0.01% and 0.1% ophthalmic solutions, twice daily repeatedly, Day 1, 7, 14; FIG. 4
Protocol: Specifically, one drop of 0.4% oxybuprocaine hydrochloride ophthalmic solution (trade name: Benoxil (registered trademark) ophthalmic solution 0.4%) was instilled to the right eye so as to provide surface anesthesia, and then the intraocular pressure was measured three times with Mentor tonometer (applanation), followed by calculation of the average. (N=6 eyes)

[5] = target: β1 adrenergic receptors (Homo sapiens, UniProt P08588); conditions: cited from earlier work
Chain of β1 adrenergic receptors (P08588 whole entry): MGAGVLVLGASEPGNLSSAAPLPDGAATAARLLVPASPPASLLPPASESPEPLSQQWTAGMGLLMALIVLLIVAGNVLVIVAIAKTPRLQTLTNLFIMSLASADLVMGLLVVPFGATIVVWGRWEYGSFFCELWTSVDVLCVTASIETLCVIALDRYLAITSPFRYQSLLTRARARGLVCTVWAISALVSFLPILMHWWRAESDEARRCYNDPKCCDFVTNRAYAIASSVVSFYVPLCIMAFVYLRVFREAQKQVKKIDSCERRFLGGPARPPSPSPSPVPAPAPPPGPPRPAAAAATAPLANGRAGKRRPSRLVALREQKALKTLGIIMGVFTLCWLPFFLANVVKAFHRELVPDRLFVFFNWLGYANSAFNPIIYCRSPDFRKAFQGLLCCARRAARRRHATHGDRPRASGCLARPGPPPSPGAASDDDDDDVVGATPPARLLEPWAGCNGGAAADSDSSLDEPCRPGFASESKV

[6] = 0.001% ophthalmic solution, 8 hours
[7] = 0.01% ophthalmic solution, 8 hours
[8] = 0.1% ophthalmic solution, 8 hours
[9] = 1% ophthalmic solution, 8 hours

In the case of `CC(C)(C)NCC(O)c1cc(Cl)c(N)c(Cl)c1` (stereo not shown) [clenbuterol], the “extension of TBUT” value [1] is reported as “not confirmed”, the “Incremental difference in Schirmer's test at 0.5 hours after ocular instillation” value ([2]; 0.001% ophthalmic solution) is reported as 2.0 mm/min and the “Incremental difference in Schirmer's test at 8 hours after ocular instillation” value [2, 6] is reported as 0.3 mm/min. The “Incremental difference in Schirmer's test at 0.5 hours after ocular instillation” value ([2]; 0.01% ophthalmic solution) was 2.7 mm/min, the “Incremental difference in Schirmer's test at 8 hours after ocular instillation” value [2, 7] was 1.1 mm/min and the “Incremental difference in Schirmer's test at 0.5 hours after ocular instillation” value ([2]; 0.1% ophthalmic solution) was 3.6 mm/min. For the same compound, the “Incremental difference in Schirmer's test at 8 hours after ocular instillation” value [2, 8] was 2.4 mm/min, the “Incremental difference in Schirmer's test at 0.5 hours after ocular instillation” value ([2]; 1% ophthalmic solution) was 3.0 mm/min and the “Incremental difference in Schirmer's test at 8 hours after ocular instillation” value [2, 9] was 3.9 mm/min. The “secretion of tears and tear proteins” value [3] was “confirmed to enhance”.
For `CC(Cc1ccc(O)cc1)NCC(O)c1cc(O)cc(O)c1` (stereo not shown) [fenoterol], the “extension of TBUT” value [1] was “not confirmed”, the “Incremental difference in Schirmer's test at 0.5 hours after ocular instillation” value ([2]; 0.001% ophthalmic solution) was 1.8 mm/min and the “Incremental difference in Schirmer's test at 8 hours after ocular instillation” value [2, 6] was 0.0 mm/min. The “Incremental difference in Schirmer's test at 0.5 hours after ocular instillation” value ([2]; 0.01% ophthalmic solution) was 4.8 mm/min, the “Incremental difference in Schirmer's test at 8 hours after ocular instillation” value [2, 7] was 0.2 mm/min and the “Incremental difference in Schirmer's test at 0.5 hours after ocular instillation” value ([2]; 0.1% ophthalmic solution) was 6.1 mm/min. The “Incremental difference in Schirmer's test at 8 hours after ocular instillation” value [2, 8] was 0.9 mm/min, the “Incremental difference in Schirmer's test at 0.5 hours after ocular instillation” value ([2]; 1% ophthalmic solution) was 3.6 mm/min and the “Incremental difference in Schirmer's test at 8 hours after ocular instillation” value [2, 9] was 1.1 mm/min. The “secretion of tears and tear proteins” value [3] was “confirmed to enhance”.
For `COc1ccc(CC(C)(C)NC[C@H](O)c2cc(O)cc3c2OCC(=O)N3)cc1` [olodaterol, 6-hydroxy-8-((1R)-1-hydroxy-2-{[2-(4-methoxyphenyl)-1,1-dimethylethyl]amino}-ethyl)-2H-1,4-benzoxazin-3-(4H)-one], the “effect of stabilizing tear film” value ([1]; low concentration of 0.0001%, FIG. 1) was “confirmed to show the effect of stabilizing tear film”, the TBUT-extending effect ([1]; single ocular instillation 0.0001, 0.001, 0.01% (w/v), 20 μL/eye, 15, 30, 60 minutes, FIG. 1) was “confirmed in a concentration-dependent manner” and the “Incremental difference in Schirmer's test at 0.5 hours after ocular instillation” value ([2]; 0.00001% ophthalmic solution) was 2.8 mm/min. For the same compound, the “Incremental difference in Schirmer's test at 8 hours after ocular instillation” value ([2]; 0.00001% ophthalmic solution, 8 hours) was 0.4 mm/min, the “Incremental difference in Schirmer's test at 0.5 hours after ocular instillation” value ([2]; 0.0001% ophthalmic solution) was 6.0 mm/min and the “Incremental difference in Schirmer's test at 8 hours after ocular instillation” value ([2]; 0.0001% ophthalmic solution, 8 hours) was 1.7 mm/min. The “lacrimal secretion at 8 hours after ocular instillation” value ([2]; 0.0001 to 0.01% instilled groups, 8 hours, FIG. 3) was “highly enhanced”, the “Incremental difference in Schirmer's test at 0.5 hours after ocular instillation” value ([2]; 0.001% ophthalmic solution) was 7.2 mm/min and the “Incremental difference in Schirmer's test at 8 hours after ocular instillation” value [2, 6] was 2.1 mm/min. For the same compound, the “increase of tear volumes at 16 hours after ocular instillation” value ([2]; 0.001 and 0.01% instilled groups, 16 hours, FIG. 3) was “increase of tear volumes was observed”, the “Incremental difference in Schirmer's test at 0.5 hours after ocular instillation” value ([2]; 0.01% ophthalmic solution) was 6.9 mm/min and the “Incremental difference in Schirmer's test at 8 hours after ocular instillation” value [2, 7] was 2.8 mm/min. For the same compound, the lacrimal secretion ([2]; olodaterol-instilled groups 0.00001 to 0.01%, FIG. 3) was “enhanced”, the intraocular pressure [4] was “did not show increase and/or decrease” and the “intrinsic activity against β1 adrenergic receptors” value [5] was “weak intrinsic activity”.
For `CC(C)(C)NCC(O)c1ccc(O)c(CO)c1` (stereo not shown) [salbutamol], the lacrimal secretion ([3]; Patent Literature 2) is listed as “confirmed to enhance lacrimal secretion” and the “effects on the treatment of dry eye” value ([3]; Patent Literature 3) is listed as “did not have sufficient effects”.
